In patent US20250313560A1, “Novel bicyclic benzylamido pyridine derivatives as SOS1 inhibitors” (Boehringer Ingelheim International GmbH, priority 2024, published 2025):
Read-outs that look alike come from different tables or passages of the source.

Tests used:
SOS1 and KRAS G12C = SOS1 and KRAS G12C (Homo sapiens (Human), UniProt Q07889); test: KRAS::SOS1 AlphaScreen binding assay (KRAS G12C); conditions: average of at least two measurements
Method: (§1) Low IC50 values are indicative of high potency of the SOS1 inhibitor compound in this assay setting:
(§2) • GST-tagged SOS1 (564_1049_GST_TEV_ECO) produced in-house • 6xHis-Tev-K-RasG12D/G12C(1-169)Avi produced in-house • GDP (Sigma Cat No G7127) • AlphaLISA Glutathione Acceptor Beads (PerkinElmer, Cat No AL109) • AlphaScreen Streptavidin Donor Beads (PerkinElmer Cat No 6760002) • Assay plates: Proxiplate-384 PLUS, white (PerkinElmer, Cat No 6008289)
(§3) [formula] • KRAS::SOS1 GDP mix: • 7.5 nM (final assay concentration) K-RasG12C, 10 nM (final assay concentration) K-RasG12D, 10 μM (final assay concentration) GDP and 5 nM (final assay concentration) GST-SOS1 are mixed in assay buffer prior to use and kept at rt. Bead mix: • AlphaLISA Glutathione Acceptor Beads and AlphaScreen Streptavidin Donor Beads are mixed in the dark in assay buffer at a concentration of 10 μg/mL (final assay concentration) each prior to use and kept at rt.
(§4) Compounds are diluted to a final start concentration of 100 μM and are tested in duplicate. Assay-ready plates (ARPs) are generated using an Access Labcyte Workstation with a Labcyte Echo 550 or 555 acoustic dispenser. For compound a start concentration of 100 μM, 150 nL of compound solution is transferred per well in 11 concentrations in duplicate with serial 1:5 dilutions.
(§5) The assay is run using a fully automated robotic system in a darkened room below 100 Lux. 10 μL of KRAS::SOS1 GDP mix is added into columns 1-24 to the 150 nL of compound solution (final dilution in the assay 1:100, final DMSO concentration 1%).
(§6) After a 30 minute incubation time, 5 μL of bead mix is added into columns 1-23. Plates are kept at rt in a darkened incubator. After a further 60 minutes incubation, the signal is measured using a PerkinElmer Envision HTS Multilabel Reader using the AlphaScreen specifications from PerkinElmer. Each plate contains the following controls:
(§7) diluted DMSO+KRAS::SOS1 GDP mix+bead mix
(§8) diluted DMSO+KRAS::SOS1 GDP mix
(§9) Result calculation: IC50 values are calculated and analyzed using a 4 parametric logistic model.
(§10) Table 1: Inhibition values for KRAS G12C as well as for KRAS G12D. […] The value indicates an average value of at least two measurements.

SOS1 and KRAS G12D = SOS1 and KRAS G12D (Homo sapiens (Human), UniProt Q07889); test: KRAS::SOS1 AlphaScreen binding assay (KRAS G12D); conditions: average of at least two measurements
SOS1 and KRAS G12D, sequence (Q07889 564-1049, stated change not applied): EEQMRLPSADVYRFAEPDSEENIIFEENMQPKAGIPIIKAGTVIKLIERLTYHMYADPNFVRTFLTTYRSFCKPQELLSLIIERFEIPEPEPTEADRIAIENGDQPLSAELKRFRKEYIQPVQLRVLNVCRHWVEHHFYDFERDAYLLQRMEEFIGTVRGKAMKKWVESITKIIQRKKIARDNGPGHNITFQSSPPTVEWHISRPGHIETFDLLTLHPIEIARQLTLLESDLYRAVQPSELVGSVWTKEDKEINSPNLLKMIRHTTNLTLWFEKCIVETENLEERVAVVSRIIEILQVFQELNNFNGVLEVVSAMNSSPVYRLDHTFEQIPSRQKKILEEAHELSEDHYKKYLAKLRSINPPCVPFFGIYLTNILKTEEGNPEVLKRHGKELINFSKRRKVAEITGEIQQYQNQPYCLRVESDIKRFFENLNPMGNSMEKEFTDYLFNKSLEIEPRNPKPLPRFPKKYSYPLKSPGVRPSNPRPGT
Method: as §1, §2, §3, §4, §5, §6, §7, §8, §9, §10

[1] = tested on: ERK phosphorylation in NCI-H358 SOS2 KO cells (KRAS G12C); test: Erk phosphorylation assay; type: cell-based, human; conditions: EGF stimulated, average of at least two measurements, read-out: pERK IC50
Method: Low IC50 values are indicative of high potency of the SOS1 inhibitor compounds in this assay setting.
ERK phosphorylation assays are performed using the following human cell line: • NCI-H358 SOS2 KO (Hofmann, Gmachl, Ramharter et al, Cancer Discov. 2021, 11(1):142-15): human lung cancer with a KRAS G12C mutation;
NCI-H358 SOS2 KO are seeded at 50000 cells per well in 60 μL of DMEM with 2% FBS, in Greiner TC 384 plates. The cells are incubated overnight in an incubator at 37° C. and 5% CO2 in a humidified atmosphere. 60 nL compound solution (10 mM DMSO stock solution) is then added using a Beckman Coulter Labcyte Echo 550 device. After 50 min incubation in the aforementioned incubator, 5 nl EGF are added to each well for a final concentration of approx. 8 ng/mL using a Beckman Coulter Labcyte Echo 550 device and cells are incubated for another 10-15 minutes before lysis. The medium is removed, and the cells are lysed by addition of 20 μL of 1.6-fold lysis buffer from the AlphaLISA SureFire Ultra pERK1/2 (Thr202/Tyr204) Assay Kit with added protease inhibitors. After 20 minutes of incubation at rt with shaking, 6 μL of each lysate sample is transferred to a 384-well Proxiplate and analyzed for pERK (Thr202/Tyr204) with the AlphaLISA SureFire Ultra pERK1/2 (Thr202/Tyr204) Assay Kit. 3 μL Acceptor Mix and 3 μL Donor Mix are added under subdued light and incubated for 2 h at rt in the dark, before the signal is measured on a Perkin Elmer Envision plate reader using 384 AlphaScreen settings for Proxiplates. Data are fitted by iterative calculation with variable hill slope. The sigmoidal curve slope is fitted using a default fitting curve to ascertain IC50 values.
Table 2: Erk Phosphorylation assay. The value indicates an average value of at least two measurements.

P450 3A4 = P450 3A4 (Homo sapiens (Human), UniProt P08684); test: Cytochrome P450 isoenzyme inhibition assay (P450 3A4, midazolam); type: in vitro ADME; conditions: human liver microsomes, Midazolam as substrate; read-out: CYP3A4 inhibition IC50
P450 3A4, sequence (P08684 whole entry): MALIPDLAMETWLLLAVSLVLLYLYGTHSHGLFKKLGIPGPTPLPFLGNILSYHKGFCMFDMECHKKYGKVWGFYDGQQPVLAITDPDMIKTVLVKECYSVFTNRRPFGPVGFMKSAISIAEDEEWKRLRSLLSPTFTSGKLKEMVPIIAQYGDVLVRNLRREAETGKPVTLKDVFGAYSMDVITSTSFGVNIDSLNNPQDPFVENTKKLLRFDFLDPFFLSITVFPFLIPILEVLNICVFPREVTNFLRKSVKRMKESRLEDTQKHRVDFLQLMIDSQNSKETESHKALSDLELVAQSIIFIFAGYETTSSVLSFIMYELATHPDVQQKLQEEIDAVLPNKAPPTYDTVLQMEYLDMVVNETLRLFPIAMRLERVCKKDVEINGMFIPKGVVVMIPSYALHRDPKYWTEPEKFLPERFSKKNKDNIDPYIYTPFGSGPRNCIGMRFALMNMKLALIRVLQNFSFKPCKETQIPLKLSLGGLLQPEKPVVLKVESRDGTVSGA
Method: For the following cytochrome P450 isoenzymes, these substrates and metabolic reactions are monitored: P450 3A4: hydroxylation of Midazolam (MDZ).
The final incubation volume contains TRIS buffer (0.1 M), MgCl2 (5 mM), a certain concentration of human liver microsomes dependent on the P450 isoenzyme measured (P450 3A4: 0.1 mg/ml) and a certain concentration of the individual substrate for each isoenzyme (P450 3A4: Midazolam 5 μM).
The effect of the test compound is determined at five different concentrations in duplicate (e.g. highest concentration 50 μM with subsequent serial 1:4 dilutions) or without test compound (high control). Following a short preincubation period, reactions are started with the cofactor (NADPH, 1 mM) and stopped by cooling the incubation down to 8° C. and subsequently by addition of one volume of ACN. An internal standard solution—usually the stable isotope of the formed metabolite—is added after quenching of incubations. Peak area analyte (=metabolite formed) and internal standard is determined by LC-MS/MS. The resulting peak area ratio analyte to internal standard in these incubations is compared to a control activity containing no test compound. Within each of the assay runs, the IC50 of a positive control inhibitor dependent on the P450 isoenzyme measured (P450 3A4: ketoconazole) is determined. The assay results are plotted against compound concentrations to calculated IC50 values (half maximal inhibitory concentrations) for inhibitory compounds utilizing Software IDBS E-WorkBook.
Table 4: Inhibition of P450 isoenzyme 3A^4.

CYP3A4 = CYP3A4 (Homo sapiens (Human), UniProt P08684); test: Mechanism-based inhibition of CYP3A4 assay (MBI 3A4); type: in vitro ADME; conditions: human liver microsomes, midazolam substrate, hydroxy-midazolam formation after 30 min preincubation relative to 0 min; for inhibition at 30 min: human, probe midazolam 15 μM (hydroxy-midazolam formation), read-out: MBI inhibition % ctrl. [%] with MDZ
CYP3A4, sequence (P08684 whole entry): as above
Method: Mechanism-Based Inhibition of CYP3A4 assay (MBI 3A4): The mechanism-based inhibition towards CYP3A4 is assayed in human liver microsomes with midazolam as substrate. The test compounds and water control (wells w/o test compound) are preincubated in presence of NADPH (1 mM) with human liver microsomes (0.2 mg/mL) at a concentration of 0, 5 and 25 μM for 0, 10 and 30 min. After preincubation, the incubate is diluted 1:10 (to 0.02 mg/mL) and the substrate midazolam (15 μM) is added for the main incubation (10 min). The main incubation is quenched with ACN and the formation of hydroxy-midazolam is quantified via LC/MS-MS. The formation of hydroxy-midazolam from the 30 min preincubation relative to the formation from the 0 min preincubation is used as a readout. Values of less than 100% mean that the substrate midazolam is metabolized to a lower extent upon 30 min preincubation compared to 0 min preincubation. In general, low effects upon 30 min preincubation are desired (corresponding to values close to 100%/not different to the values determined with water control).
Table 5: Mechanism-based inhibition of P450 isoenzyme 3A4 with midazolam as substrate.

human hepatocytes = test: Metabolic stability in human hepatocytes; conditions: 1 μM test compound, 50% human serum, percentage of liver blood flow
Method: The metabolic degradation of a test compound is performed with hepatocytes in suspension. After recovery from cryopreservation, human hepatocytes are diluted in Dulbecco's modified eagle medium (supplemented with 3.5 μg glucagon/500 mL, 2.5 mg insulin/500 mL, 3.75 mg hydrocortisone/500 mL, 50% human serum) to obtain a final cell density of 1.0×10^6 cells/mL. Following a preincubation in a cell culture incubator (37° C., 10% CO2), test compound dissolved in DMSO is mixed with the hepatocyte suspension, resulting in a final test compound concentration of 1 μM and a final DMSO concentration of 0.05%.
The cell suspension is incubated at 37° C. (cell culture incubator, horizontal shaker) and samples are removed from the incubation after 0, 0.5, 1, 2, 4 and 6 hours. Samples are quenched with acetonitrile (containing internal standard) and pelleted by centrifugation. The supernatant is transferred to a deep-well plate and prepared for analysis of decline of parent compound by HPLC-MS/MS.
The percentage of remaining test compound is calculated using the peak area ratio (test compound/internal standard) of each incubation time point relative to the time point 0 peak area ratio. The log-transformed data are plotted versus incubation time, and the absolute value of the slope obtained by linear regression analysis is used to estimate in vitro half-life (T1/2).
CL_[sequence]_IN VIVO[mL/min/kg]=(CL_[sequence][μL/min/10^6cells]×hepatocellularity[10^6cells/g liver]×liver factor[g/kg body weight])/1000
Hepatic in vivo blood clearance (CL) is predicted according to the well-stirred liver model considering an average liver blood flow (QH) of 20.7 mL/min/kg:
CL[mL/min/kg]=CL_[sequence]_IN VIVO[mL/min/kg]×hepatic blood flow[mL/min/kg]/(CL_[sequence]_IN VIVO[mL/min/kg]+hepatic blood flow[mL/min/kg])
Results are expressed as percentage of hepatic blood flow:
QH[%]=CL[mL/min/kg]/hepatic blood flow[mL/min/kg])

[2] = Homo sapiens, NCI-H358, NCI-H358 SOS2 KO cells

SOS1 and KRAS G12C, sequence (Q07889 564-1049, stated change not applied): as the sequence (Q07889 564-1049, stated change not applied) above

Row | SMILES | IC50 (SOS1 and KRAS G12C) | IC50 (SOS1 and KRAS G12D) | IC50 [1, 2] | IC50 (P450 3A4) | inhibition at 30 min (CYP3A4) | Hepatic clearance - QH[%] in human hepatocytes (human hepatocytes) | IC50 ([1]; NCI-H358 SOS2 KO cells) | MBI inhibition % ctrl. [%] with MDZ (CYP3A4)
1 | C[C@@H](NC(=O)c1cc(N2CCC(N3C[C@@H](O)[C@@H]3C)CC2)c2ncnn2c1)c1cccc(C(F)(F)F)c1F [Example E32] | 44 nM | 43 nM | 270 nM | > 50000 nM | 92% | 23% | – | –
2 | C[C@@H](NC(=O)c1cc([C@H]2CC[C@H](N3CCC[C@H](O)C3)CC2)c2nncn2c1)c1cccc(C(F)F)c1F [Example E81] | 25 nM | 24 nM | 258 nM | > 50000 nM | 93% | 15% | – | –
3 | C[C@@H](NC(=O)c1cc(N2CCC(N(C)C)CC2)c2ncnn2c1)c1cccc(C(F)(F)F)c1F [Example E35] | 57 nM | 48 nM | 160 nM | > 50000 nM | 94% | 6% | – | –
4 | C[C@@H](NC(=O)c1cc([C@H]2CC[C@H](N3CCC[C@@H](O)C3)CC2)c2ncnn2c1)c1cccc(C(F)(F)F)c1F [Example E68] | 36 nM | 27 nM | 116 nM | > 50000 nM | 91% | 12% | – | –
5 | C[C@@H](NC(=O)c1cc(N2CCC(N3CCC[C@H]3CO)CC2)c2ncnn2c1)c1cccc(C(C)(F)F)c1F [Example E72] | 33 nM | 32 nM | 92 nM | > 50000 nM | 98% | 21% | – | –
6 | C[C@@H](NC(=O)c1cc(N2CCC(N3CC[C@@H](CO)C3)CC2)c2ncnn2c1)c1cccc(C(C)(F)F)c1F [Example E73] | 64 nM | 64 nM | 136 nM | > 50000 nM | 103% | 24% | – | –
7 | C[C@@H](NC(=O)c1cc(N2CCC(N3CC4CC4(CO)C3)CC2)c2ncnn2c1)c1cccc(C(F)F)c1F (single isomer, unassigned) [Example cis-E21b] | 78 nM | 82 nM | – | > 50000 nM | – | 38% | 242 nM | 96%
8 | C[C@@H](NC(=O)c1cc(N2CCC(N3CCC[C@@H]3CO)CC2)c2ncnn2c1)c1cccc(C(F)F)c1F [Example E1] | 33 nM | 30 nM | 118 nM | > 50000 nM | 98% | 17% | – | –
9 | C[C@@H](NC(=O)c1cc(N2CCC(N(C)CCO)CC2)c2ncnn2c1)c1cccc(C(F)(F)F)c1F [Example E55] | 69 nM | 54 nM | 397 nM | > 50000 nM | 83% | <4% | – | –
10 | C[C@@H](NC(=O)c1cc(N2CC3CCC(C2)N3C)c2nncn2c1)c1cccc(C(F)(F)F)c1F [Example E76] | 49 nM | 36 nM | 230 nM | > 50000 nM | 84% | – | – | –
11 | C[C@@H](NC(=O)c1cc(N2CCC(N3CCCC(O)CC3)CC2)c2ncnn2c1)c1cccc(C(F)(F)F)c1F (single isomer, unassigned) [Example E43b] | 34 nM | 35 nM | – | > 50000 nM | – | – | 101 nM | 94%
12 | CC(C)N1CC=C(c2cc(C(=O)N[C@H](C)c3cccc(C(F)(F)F)c3F)cn3cnnc23)CC1 [Example E83] | 30 nM | 26 nM | 132 nM | > 50000 nM | 86% | – | – | –
